Legend:
[1] = tested on: CFTR in G551D/F508del HBEs; assay: Ussing measurements, G551D/F508del HBEs; assay type: cell-based, human; conditions: genotype G551D/F508del
Method: As discussed above, Ussing measurements was used to measure CFTR activity. In this method, primary lung epithelial cells (hBEs) with a Cystic Fibrosis-causing class III mutation were differentiated for a minimum of 4 weeks in an air-liquid interface on SnapWell™ filter plates prior to the Ussing measurements. Cells were apically mucus-washed for 30 minutes prior to treatment with compounds. The basolateral media was removed and replaced with media containing the compound of interest diluted to its final concentration from DMSO stocks. Treated cells were incubated at 37° C. and 5% CO2 for 24 hours. At the end of the treatment period, the cells on filters were transferred to the Ussing chamber and equilibrated for 30 minutes. The short-circuit current was measured in voltage clamp-mode (Vhold=0 mV), and the entire assay was conducted at a temperature of 36° C.-36.5° C. Once the voltages stabilized, the chambers were clamped, and data was recorded by pulse readings every 5 seconds. Following baseline current stabilization, the following additions were applied and the changes in current and resistance of the cells was monitored: • 1. Benzamil to the apical chamber to inhibit ENaC sodium channel. • 2. Forskolin to both chambers to activate ΔF508-CFTR by phosphorylation. • 3. Ivacaftor or Genistein to the apical chamber to potentiate ΔF508-CFTR channel opening. • 4. CFTRinh-172 to the apical chamber to inhibit ΔF508-CFTR Cl-conductance.
The forskolin-sensitive current and inhibitable current (that potentiated current that is blocked by CFTRinh-172) were measured as the specific activity of the ΔF508-CFTR channel, and increase in response to compound in this activity over that observed in vehicle-treated samples were identified as the correction of ΔF508-CFTR function imparted by the compound tested.
The results are shown below in Tables 5 and 6. Compound A is 10 uM and VX-809 is 3 uM and ivacaftor is 1 uM.

ΔF508-CFTR [2] = target: T1, ΔF508-CFTR (Homo sapiens, UniProt P13569, DEL508-508); assay: Ussing measurements, hBEs homozygous for ΔF508; assay type: cell-based; conditions: compound at 10 uM and VX-809 at 3 uM, relative to VX-809 (3 uM); 24 h treatment
T1 construct: primary lung epithelial cells (hBEs) homozygous for the Cystic Fibrosis-causing ΔF508 mutation; endogenous in cells; host or cells: primary lung epithelial cells (hBEs) homozygous for ΔF508
T1 sequence (P13569 with tags, fused parts or gaps DEL508-508): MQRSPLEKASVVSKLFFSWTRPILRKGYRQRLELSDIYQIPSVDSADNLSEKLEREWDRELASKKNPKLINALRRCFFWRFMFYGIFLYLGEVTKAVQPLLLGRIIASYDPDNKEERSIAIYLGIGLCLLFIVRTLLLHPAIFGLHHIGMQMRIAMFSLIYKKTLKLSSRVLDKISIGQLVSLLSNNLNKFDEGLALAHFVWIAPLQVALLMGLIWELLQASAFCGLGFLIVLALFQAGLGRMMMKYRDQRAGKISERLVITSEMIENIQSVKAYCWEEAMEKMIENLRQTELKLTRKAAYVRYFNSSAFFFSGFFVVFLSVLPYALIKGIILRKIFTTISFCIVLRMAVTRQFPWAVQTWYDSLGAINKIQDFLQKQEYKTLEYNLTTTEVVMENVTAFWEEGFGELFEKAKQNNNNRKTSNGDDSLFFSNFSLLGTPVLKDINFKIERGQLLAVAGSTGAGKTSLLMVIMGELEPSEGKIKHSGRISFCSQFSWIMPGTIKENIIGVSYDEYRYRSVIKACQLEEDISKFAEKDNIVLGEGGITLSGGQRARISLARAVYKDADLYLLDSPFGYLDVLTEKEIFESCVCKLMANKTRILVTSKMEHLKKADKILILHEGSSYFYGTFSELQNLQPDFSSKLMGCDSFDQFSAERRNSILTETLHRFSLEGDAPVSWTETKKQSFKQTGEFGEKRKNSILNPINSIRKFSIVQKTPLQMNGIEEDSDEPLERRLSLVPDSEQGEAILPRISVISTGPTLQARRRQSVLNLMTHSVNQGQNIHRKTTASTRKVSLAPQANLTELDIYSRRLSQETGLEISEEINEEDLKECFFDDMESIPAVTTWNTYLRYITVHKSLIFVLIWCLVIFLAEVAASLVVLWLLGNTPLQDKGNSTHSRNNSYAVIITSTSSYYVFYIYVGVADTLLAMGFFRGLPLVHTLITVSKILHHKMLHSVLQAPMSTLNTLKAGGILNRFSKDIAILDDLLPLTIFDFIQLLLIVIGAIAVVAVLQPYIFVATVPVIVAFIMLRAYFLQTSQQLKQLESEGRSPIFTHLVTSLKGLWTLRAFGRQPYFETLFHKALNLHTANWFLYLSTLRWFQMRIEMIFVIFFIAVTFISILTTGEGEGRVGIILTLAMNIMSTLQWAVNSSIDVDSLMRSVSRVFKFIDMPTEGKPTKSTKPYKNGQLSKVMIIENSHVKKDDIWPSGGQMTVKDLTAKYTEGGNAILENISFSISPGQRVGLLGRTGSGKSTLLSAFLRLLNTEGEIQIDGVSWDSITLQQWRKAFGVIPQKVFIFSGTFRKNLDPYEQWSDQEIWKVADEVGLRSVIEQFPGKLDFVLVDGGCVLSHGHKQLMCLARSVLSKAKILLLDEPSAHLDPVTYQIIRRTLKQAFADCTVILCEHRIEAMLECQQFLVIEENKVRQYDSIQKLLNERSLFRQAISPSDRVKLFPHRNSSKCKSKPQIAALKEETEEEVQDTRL
Method: As discussed above, Ussing measurements can be used to measure CFTR activity. In this example, primary lung epithelial cells (hBEs) homozygous for the Cystic Fibrosis-causing ΔF508 mutation were differentiated for a minimum of 4 weeks in an air-liquid interface on SnapWell filter plates prior to the Ussing measurements. Cells were apically mucus-washed for 30 minutes prior to treatment with compounds. The basolateral media was removed and replaced with media containing the compound of interest diluted to its final concentration from DMSO stocks. Treated cells were incubated at 37° C. and 5% CO2 for 24 hours. […] The short-circuit current was measured in voltage clamp-mode (Vhold=0 mV), and the entire assay was conducted at a temperature of 36° C.-36.5° C. Once the voltages stabilized, the chambers were clamped, and data was recorded by pulse readings every 5 seconds. Following baseline current stabilization, the following additions were applied and the changes in current and resistance of the cells was monitored: • 1. […]
The inhibitable current (that current that is blocked by CFTRinh-172) is measured as the specific activity of the ΔF508-CFTR channel, and increases in response to compound in this activity over that observed in vehicle-treated samples are identified as the correction of ΔF508-CFTR function imparted by the compound tested. […]

ΔF508-CFTR [3] = target: T1, ΔF508-CFTR; assay: hBE equivalent current (Ieq) assay, primary lung epithelial cells homozygous for ΔF508; assay type: cell-based; conditions: compound at 10 uM and VX-809 at 1 uM, relative to VX-809 (1 uM); 24 h treatment
Method: Primary lung epithelial cells homozygous for the Cystic Fibrosis-causing ΔF508 mutation were differentiated for a minimum of 4 weeks in an air-liquid interface on Costar 24 well HTS filter plates prior to the equivalent current (Ieq) measurements. Cells were apically mucus-washed for 30 minutes 24h prior to treatment with compounds. The basolateral media was removed and replaced with media containing the compound of interest diluted to its final concentration from DMSO stocks. Treated cells were incubated at 37° C. and 5% CO2 for 24 hours. At the end of the treatment period, the media was changed to the Ieq experimental solution for 30 minutes before the experiment and plates are maintained in a CO2-free incubator during this period. The plates containing the cells were then placed in pre-warmed heating blocks at 36° C.±0.5 for 15 minutes before measurements are taken. The transepithelial voltage (VT) and conductance (GT) were measured using a custom 24 channel current clamp (TECC-24) with 24 well electrode manifold. The Ieq assay measurements were made following additions with standardized time periods: • 1. The baseline VT and GT values were measured for approximately 20 minutes. • 2. Benzamil was added to block ENaC for 15 minutes. • 3. Forskolin plus VX-770 (ivacaftor) were added to maximally activate ΔF508-CFTR for 27 minutes. • 4. Bumetanide was added to inhibit the NaK2Cl cotransporter and shut-off secretion of chloride.
The activity data captured was the area under the curve (AUC) for the traces of the equivalent chloride current. The AUC was collected from the time of the forskolin/VX-770 addition until the inhibition by bumetanide addition. Correction in response to compound treatment was scored as the increase in the AUC for compound-treated samples over that of vehicle-treated samples.
The results are shown below in Table 2. ++ indicates activity ≥25% run at 10 uM of VX-809 at 1 uM, + indicates activity 10 to <25% run at 10 uM of VX-809 at 1 uM, ** indicates activity ≥200% of VX-809 (1 uM) with compound at 10 uM and VX-809 at 1 uM; * indicates activity 100-200% of VX-809 (1 uM) with compound at 10 uM and VX-809 at 1 uM. ^## indicates activity ≥200% of VX-809 (3 uM) with compound at 10 uM and VX-809 at 3 uM; ^# indicates activity 100-200% of VX-809 (3 uM) with compound at 10 uM and VX-809 at 3 uM.

## C[C@@H](O)c1nnc([C@H]2C[C@H](NC(=O)c3cc(-c4ccccc4)no3)C2)o1 [Example 6, N-(trans-3-(5-((R)-1-hydroxyethyl)-1,3,4-oxadiazol-2-yl)cyclobutyl)-3-phenylisoxazole-5-carboxamide]
[1]; compound A 10uM + ivacaftor 1uM, relative activity of 100% = ivacaftor
  Combination with ivacaftor, activity: ++++ (++++ indicates activity at 10uM of >150% of the indicated relative activity treatment)
[1]; compound A 10uM, relative activity of 100% = ivacaftor (1uM)
  Stand Alone activity: + (+ indicates activity at 10uM of 15% to <50% of the indicated relative activity treatment)
ΔF508-CFTR [2]
  Ussing: activity of compound with VX-809, % of VX-809: ## (## indicates activity ≥200% of VX-809 (3 uM) with compound at 10 uM and VX-809 at 3 uM)
ΔF508-CFTR [3]
  leq: activity of compound with VX-809, % of VX-809 (AUC of equivalent chloride current): * (* indicates activity 100-200% of VX-809 (1 uM) with compound at 10 uM and VX-809 at 1 uM)
